Measured values taken from patent US8815919B2, “Oxadiazole derivatives” (Merck Serono SA, priority 2009, dated 2014).
Where a name gives a salt, the structure may show the parent alone. Read-outs that look alike come from different tables or passages of the source.

How the values were obtained:
[1] = biological target: T1, S1P1 (Homo sapiens, UniProt P21453); experiment: Receptor binding assay, [33P]sphingosine 1-phosphate competition, S1P1 membranes, WGA SPA beads
Summary of the method: (§1)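 Competition of [33P]S1P ([…]) on CHO cell membranes with WGA SPA beads in 50 mM HEPES pH 7.5, 5 mM MgCl2, 100 mM NaCl, 0.4% fatty acid-free BSA; 60 min at RT. Triplicates normalised to total binding and nonspecific binding (1000-fold excess unlabeled S1P).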
Target sequence in this assay (P21453 whole entry, species assumed): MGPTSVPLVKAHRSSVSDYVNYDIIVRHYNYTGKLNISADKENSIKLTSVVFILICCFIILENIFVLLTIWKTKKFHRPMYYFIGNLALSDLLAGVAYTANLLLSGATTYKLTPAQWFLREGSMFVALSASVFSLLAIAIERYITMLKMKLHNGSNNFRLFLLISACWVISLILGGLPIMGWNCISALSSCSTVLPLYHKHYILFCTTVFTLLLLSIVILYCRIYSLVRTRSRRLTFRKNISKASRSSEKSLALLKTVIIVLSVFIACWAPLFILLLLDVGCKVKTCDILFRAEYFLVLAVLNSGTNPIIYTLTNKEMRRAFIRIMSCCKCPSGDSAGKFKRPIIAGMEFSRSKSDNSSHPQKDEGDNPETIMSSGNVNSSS

[2] = biological target: T1, S1P1; experiment: S1P1 internalization assay in S1P1-U2OS cells (S1P1-EGFP), cell imaging; assay type: cell-based; set-up: host or cells: U2OS (human bone osteosarcoma epithelial cells), CMV promoter, geneticin selection; details: 1 hour incubation
Summary of the method: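 U2OS cells stably expressing human S1P1-EGFP, plated overnight in 1% FCS medium, then serum-starved 2 h in 0.1% fatty-acid-free BSA before 1 h compound exposure at 37 °C. After PFA fixation and Hoechst staining, internalization imaged as EGFP spot count per nucleus.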
Target sequence in this assay (P21453 whole entry): as the sequence (P21453 whole entry, species assumed) above

[3] = biological target: S1P3 (Homo sapiens, UniProt Q99500); experiment: Receptor binding assay, [33P]sphingosine 1-phosphate competition, S1P3 membranes, WGA SPA beads
Sequence of S1P3 (Q99500 whole entry, species assumed): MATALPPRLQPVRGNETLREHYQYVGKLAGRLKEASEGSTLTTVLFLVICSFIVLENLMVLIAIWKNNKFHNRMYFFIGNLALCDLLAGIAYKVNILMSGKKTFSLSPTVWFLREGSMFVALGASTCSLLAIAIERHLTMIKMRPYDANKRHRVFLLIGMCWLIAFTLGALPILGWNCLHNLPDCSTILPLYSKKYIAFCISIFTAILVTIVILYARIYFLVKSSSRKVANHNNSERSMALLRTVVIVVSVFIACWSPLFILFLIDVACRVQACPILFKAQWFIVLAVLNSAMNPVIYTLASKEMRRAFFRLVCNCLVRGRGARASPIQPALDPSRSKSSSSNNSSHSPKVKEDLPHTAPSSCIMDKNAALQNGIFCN
Summary of the method: as §1

[4] = 96 well-plate, read-out: S1P1 binding Ki (M) (96 well-plate)
[5] = 96 well-plate, read-out: S1P3 binding Ki (M) (96 well-plate)
[6] = 384 well-plate, read-out: S1P1 binding Ki (M) (384 well-plate)
[7] = 384 well-plate, read-out: S1P3 binding Ki (M) (384 well-plate)

| SMILES | Ki [1, 4] [M] | EC50 [2] [nM] | Ki [3, 5] [M] | Ki [1, 6] [M] | Ki [3, 7] [M] |
| --- | --- | --- | --- | --- | --- |
| CC1CCCCN1c1ccc(-c2nc(-c3cc(F)cc(CN(C)CC(=O)O)c3)no2)cc1C(F)(F)F (centres unmarked) [Example 56, N-(3-fluoro-5-{5-[4-(2-methylpiperidin-1-yl)-3-(trifluoromethyl)phenyl]-1,2,4-oxadiazol-3-yl}benzyl)-N-methylglycine, hydrochloride salt] | 3.25e-10 | 20.2 | 3.79e-08 | – | – |
| CCCN(CC(=O)O)Cc1cccc(-c2noc(-c3ccc(-c4ccccc4C)c(COC)c3)n2)c1 [Example 77, N-(3-{5-[2-(methoxymethyl)-2′-methylbiphenyl-4-yl]-1,2,4-oxadiazol-3-yl}benzyl)-N-propylglycine, hydrochloride salt] | 1.58e-09 | 52.6 | 6.05e-07 | 9.83e-10 | – |
| Cc1ccccc1-c1ccc(-c2nc(-c3ccc(CN(C)CC(=O)O)cc3)no2)cc1C [Example 130, N-{4-[5-(2,2′-dimethylbiphenyl-4-yl)-1,2,4-oxadiazol-3-yl]benzyl}-N-methylglycine, hydrochloride salt] | 8.34e-10 | 23.3 | – | 2.53e-09 | 5.38e-06 |
| COCc1cc(-c2nc(-c3ccc(CN(C)CC(=O)O)c(F)c3)no2)ccc1-c1cccc(F)c1C [Example 91, N-(2-fluoro-4-{5-[3′-fluoro-2-(methoxymethyl)-2′-methylbiphenyl-4-yl]-1,2,4-oxadiazol-3-yl}benzyl)-N-methylglycine, hydrochloride salt] | 1.63e-10 | 5.53 | 2e-07 | 1.13e-09 | 3.35e-07 |
| COCc1cc(-c2nc(-c3ccc(CN(C)CCC(=O)O)cc3)no2)ccc1-c1ccccc1C [Example 74, N-(4-{5-[2-(methoxymethyl)-2′-methylbiphenyl-4-yl]-1,2,4-oxadiazol-3-yl}benzyl)-N-methyl-beta-alanine, hydrochloride salt] | 2.01e-10 | 1.46 | 1.08e-07 | – | – |
| COCc1cc(-c2nc(-c3cccc(CC(=O)NCCC(=O)O)c3)no2)ccc1-c1ccccc1C [Example 43, N-[(3-{5-[2-(methoxymethyl)-2′-methylbiphenyl-4-yl]-1,2,4-oxadiazol-3-yl}phenyl)acetyl]-beta-alanine] | 2.16e-09 | 34.5 | – | 6.6e-09 | 2e-07 |
| Cc1ccccc1-c1ccc(-c2nc(-c3ccc(CNCCCC(=O)O)cc3)no2)cc1C(F)(F)F [Example 142, 4-[(4-{5-[2′-methyl-2-(trifluoromethyl)biphenyl-4-yl]-1,2,4-oxadiazol-3-yl}benzyl)amino]butanoic acid] | – | 0.802 | – | 5.49e-10 | 3.73e-07 |
| Cc1ccccc1-c1ccc(-c2nc(-c3cccc(CN(C)CC(=O)O)c3)no2)cc1C [Example 132, N-{3-[5-(2,2′-dimethylbiphenyl-4-yl)-1,2,4-oxadiazol-3-yl]benzyl}-N-methylglycine, hydrochloride salt] | – | 235 | – | 3.65e-09 | 1.64e-06 |
| COCc1cc(-c2nc(-c3cccc(CN(C)CC(=O)O)c3)no2)ccc1-c1ccc(F)c(F)c1C [Example 42, N-(3-{5-[3′,4′-difluoro-2-(methoxymethyl)-2′-methylbiphenyl-4-yl]-1,2,4-oxadiazol-3-yl}benzyl)-N-methylglycine, hydrochloride salt] | 1.82e-10 | 18.3 | – | 1.7e-09 | 2.75e-07 |
| COCc1cc(-c2nc(-c3ccc(CN(C)CC(=O)O)c(C)c3)no2)ccc1-c1ccccc1C [Example 125, 2-((4-(5-(2-(methoxymethyl)-2′-methylbiphenyl-4-yl)-1,2,4-oxadiazol-3-yl)-2-methylbenzyl)(methyl)amino)acetic acid] | – | 7.65 | – | 2.31e-09 | 1.92e-06 |
| COCc1cc(-c2nc(-c3ccc(CN(C)CC(=O)O)cc3Cl)no2)ccc1-c1ccccc1C [Example 144, 2-((4-(5-(2-(methoxymethyl)-2′-methylbiphenyl-4-yl)-1,2,4-oxadiazol-3-yl)-3-chlorobenzyl)(methyl)amino)acetic acid] | – | 25.7 | – | 1.73e-09 | 3.55e-07 |
| COCc1cc(-c2nc(-c3ccc(CN(C)CC(=O)O)cc3)no2)ccc1-c1ccccc1F [Example 54, N-(4-{5-[2′-fluoro-2-(methoxymethyl)biphenyl-4-yl]-1,2,4-oxadiazol-3-yl}benzyl)-N-methylglycine, hydrochloride salt] | 3.04e-10 | 6.36 | 3.21e-07 | 9.76e-10 | 2.59e-07 |
| Cc1ccccc1-c1ccc(-c2nc(-c3ccc(CN(C)CC(=O)O)c(F)c3)no2)cc1C [Example 131, N-{4-[5-(2,2′-dimethylbiphenyl-4-yl)-1,2,4-oxadiazol-3-yl]-2-fluorobenzyl}-N-methylglycine, hydrochloride salt] | – | 16.2 | – | 1.68e-09 | 1.98e-06 |
| COCc1cc(-c2nc(-c3cccc(CN(C)CC(=O)O)c3)no2)ccc1N1CCCC1C (centres unmarked) [Example 34, N-(3-{5-[3-(methoxymethyl)-4-(2-methylpyrrolidin-1-yl)phenyl]-1,2,4-oxadiazol-3-yl}benzyl)-N-methylglycine] | 1.18e-10 | 13.5 | 3.03e-07 | – | – |
| COCc1cc(-c2nc(-c3ccc(CCN(C)CC(=O)O)cc3)no2)ccc1-c1ccccc1C [Example 87, [(2-{4-[5-(2-Methoxymethyl-2′-methyl-biphenyl-4-yl)-[1,2,4]oxadiazol-3-yl]-phenyl}-ethyl)-methyl-amino]-acetic acid] | 4.23e-10 | 13.6 | 4.2e-07 | 9.45e-10 | 3.85e-07 |
| COCc1cc(-c2nc(-c3cccc(CN(C)CC(=O)O)c3)no2)ccc1-c1ccccc1 [Example 33] | 1.83e-10 | 6.96 | 6.24e-08 | – | – |
| CC1CCCCN1c1ccc(-c2nc(-c3ccc(CN(C)CC(=O)O)c(F)c3)no2)cc1C(F)(F)F (centres unmarked) [Example 85, N-(2-fluoro-4-{5-[4-(2-methylpiperidin-1-yl)-3-(trifluoromethyl)phenyl]-1,2,4-oxadiazol-3-yl}benzyl)-N-methylglycine, dihydrochloride salt] | 3.16e-10 | 13.6 | 1.77e-07 | 9.74e-10 | – |
| COCc1cc(-c2nc(-c3ccc(OCCO)c(F)c3)no2)ccc1-c1ccccc1C [Example 28, 2-(2-fluoro-4-{5-[2-(methoxymethyl)-2′-methylbiphenyl-4-yl]-1,2,4-oxadiazol-3-yl}phenoxy)ethanol] | 8.88e-10 | 11.9 | 2.14e-07 | – | – |
| COCc1cc(-c2nc(-c3cccc(CN(C)CC(O)CO)c3)no2)ccc1-c1ccccc1C (centres unmarked) [Example 39, 3-[(3-{5-[2-(methoxymethyl)-2′-methylbiphenyl-4-yl]-1,2,4-oxadiazol-3-yl}benzyl)(methyl)amino]propane-1,2-diol] | 3.71e-10 | 13.5 | 8.48e-07 | 2.08e-09 | 1.18e-06 |
| COCc1cc(-c2nc(-c3ccc(CN(C)CC(=O)O)c(OC)c3)no2)ccc1-c1ccccc1C [Example 79, 2-((2-methoxy-4-(5-(2-(methoxymethyl)-2′-methylbiphenyl-4-yl)-1,2,4-oxadiazol-3-yl)benzyl)(methyl)amino)acetic acid, hydrochloride salt] | 2.69e-09 | 47.7 | 4.84e-06 | 5.33e-09 | – |
| COc1cc(-c2noc(-c3ccc(N4CCCCC4C)c(C(F)(F)F)c3)n2)ccc1CN(C)CC(=O)O (centres unmarked) [Example 80, 2-((2-methoxy-4-(5-(4-(2-methylpiperidin-1-yl)-3-(trifluoromethyl)phenyl)-1,2,4-oxadiazol-3-yl)benzyl)(methyl)amino)acetic acid, hydrochloride salt] | 1.6e-09 | 47 | 2.79e-06 | 3.12e-09 | – |
| CC1CCCCN1c1ccc(-c2nc(-c3cccc(COCC(=O)O)c3)no2)cc1C(F)(F)F (centres unmarked) [Example 38, [(3-{5-[4-(2-methylpiperidin-1-yl)-3-(trifluoromethyl)phenyl]-1,2,4-oxadiazol-3-yl}benzyl)oxy]acetic acid, hydrochloride salt] | 6.22e-10 | 15.4 | 6.74e-07 | – | – |
| COCc1cc(-c2nc(-c3cccc(CC(=O)NCCN(C)C)c3)no2)ccc1-c1ccccc1C [Example 41, N-[2-(dimethylamino)ethyl]-2-(3-{5-[2-(methoxymethyl)-2′-methylbiphenyl-4-yl]-1,2,4-oxadiazol-3-yl}phenyl)acetamide] | 1.27e-09 | 76.9 | – | 8.34e-09 | 4.3e-06 |
| CCN(CC(=O)O)Cc1cccc(-c2noc(-c3ccc(-c4ccccc4C)c(COC)c3)n2)c1 [Example 78, N-ethyl-N-(3-{5-[2-(methoxymethyl)-2′-methylbiphenyl-4-yl]-1,2,4-oxadiazol-3-yl}benzyl)glycine, hydrochloride salt] | 4.41e-10 | 34.3 | 1.5e-07 | 2.47e-09 | 3.54e-07 |
| COCc1cc(-c2nc(-c3ccc(CN(C)CC(=O)O)cc3)no2)ccc1-c1cccc(F)c1C [Example 90, N-(4-{5-[3′-fluoro-2-(methoxymethyl)-2′-methylbiphenyl-4-yl]-1,2,4-oxadiazol-3-yl}benzyl)-N-methylglycine, hydrochloride salt] | 2.78e-10 | 4.46 | 5.45e-07 | 8.65e-10 | 8.49e-07 |
